From patent US20080261911A1, “Uses of diphenyl/diphenylamine carboxylic acids” (priority 2006, published 2008)

What was measured:
[1] = system: Sp1, Sp3, and Sp4 proteins; assay: Western blot of Sp1, Sp3 and Sp4 protein expression in Panc-1 cells; format: cell-based; conditions: for Sp1, Sp3, and Sp4 protein expression / order of potency for decreased expression of Sp1, Sp3, and Sp4 proteins: 50 μM; for Sp1, Sp3, and Sp4 protein expression: Western blot, vs DMSO
[2] = system: VEGF promoter constructs pVEGF1 and pVEGF2; assay: VEGF promoter (pVEGF1/pVEGF2) luciferase transactivation in Panc-1 cells; format: cell-based
Experimental: Transfection of Panc-1 cells with pVEGF1 and pVEGF2 and treatment with 50 μM ampiroxicam and tolfenamic acid (FIGS. 2A, 2B) or diclofenac sodium (FIGS. 2C, 2D) with pVEGF1 or pVEGF2 constructs. Cells were transfected with pVEGF1 or pVEGF2 treated with DMSO, 50 μM ampiroxicam, tolfenamic acid, or diclofenac sodium, and luciferase activity determined. Transfection of L3.6pl cells with pVEGF1 (FIG. 2E) or pVEGF2 constructs (FIG. 2F). […] Panc-1 cells were transfected with pVEGF2, treated with 20, 40, 60 or 80 μM ampiroxicam or tolfenamic acid, and luciferase determined. Results presented herein are means ±SE for three separate determinations per treatment group, and significant (p<0.05) decrease in luciferase activity is indicated by an asterisk.
Cells are cultured in 6-well plates in 2 ml of DME/F12 medium supplemented with 5% fetal bovine serum. After 16-20 hr when cells are 50-60% confluent, reporter gene constructs are transfected using LIPOFECTAMINE™ reagent (Invitrogen, Carlsbad, Calif.). The effects of the selective non-steroidal anti-inflammatory drugs on transactivation are investigated in Panc1 and L3.6pl cells co-transfected with different VEGF constructs (500 ng). […] For proteasome inhibitor experiments, cells will be co-treated with 2 μM lactacystin, and for electrophoretic mobility shift assay (EMSA), nuclear extracts from Panc1 and L3.6pl cells are isolated as described, and aliquots will be stored at −80° C. until used (Abdelrahim et al, 2004; Abdelrahim et al, 2005).
Previous studies have shown COX-2 inhibitors or small interfering RNAs for Sp proteins decreased vascular endothelial growth factor expression in colon and pancreatic cells (Abdelrahim et al, 2005; Baker et al, 2002; Masferrer et al, 2000; Bouwman et al, 2002). The effects of DMSO, 50 μM tolfenamic acid and 50 μM ampiroxicam on vascular endothelial growth factor expression were initially investigated in Panc-1 cells transfected with the pVEGF1 and pVEGF2 constructs, which contain −2018 to +50 and −131 to +54 VEGF promoter inserts, respectively (FIGS. 2A and 2B).

Panc-1 cells = assay: Cell proliferation assay, Panc-1 cells; format: cell-based; conditions: for growth of Panc-1 pancreatic cancer cells: different concentrations, 6 days, cell counting
Experimental: FIGS. 6A-6E show comparative effects of non-steroidal anti-inflammatory drugs on Panc-1 cell proliferation and Sp protein expression. Effects of tolfenamic acid (FIG. 6A), ampiroxicam (FIG. 6B), naproxen (FIG. 6C), and diclofenac sodium (FIG. 6D) on Panc-1 cell proliferation. Panc-1 cells were treated with different concentrations of non-steroidal anti-inflammatory drugs for 6 days, and the number of cells were determined on days 2, 4, and 6 by cell counting techniques. […] Panc-1 cells were treated with DMSO, 150 μM ampiroxicam, 150 μM naproxen, and 50 μM tolfenamic acid for 48 hr, and levels of Sp proteins and the cleaved poly (ADP-ribose) polymerase (PARP) protein were determined in whole cell lysates by Western blot analysis. […] Panc1, Panc28 and L3.6pl cells are seeded in DMEM/F12 media with 5% FBS and treated the next day with either vehicle (DMSO) or with the indicated compounds' concentrations. Cells are counted at the indicated times using a Z1™ COULTER COUNTER® cell counter. Each experiment is carried out in triplicate and results expressed as means ±SD for each determination.

[3] = system: Sp1, Sp3 and Sp4 in colon cancer cells; conditions: cited from earlier work
[4] = system: orthotopically implanted human pancreatic L3.6p1 cancer cells; assay: Orthotopic pancreatic tumor model in athymic nude mice; conditions: gemcitabine 50 mg/kg
Experimental: Median tumor volumes (FIG. 8A) and weights (FIG. 8B) in athymic nude mice treated orthotopically with L3.6pl cells, and corn oil (control), tolfenamic acid (25 and 50 mg/kg), and gemcitabine (50 mg/kg) were determined. […] Tumors from the various treatment groups were analyzed for Sp1, Sp3, Sp4, and VEGF protein expression by Western blot analysis. […] Immunostaining is shown for VEGF (FIG. 8D), and CD31 (FIG. 8E). Pancreatic tumor sections from animals treated with solvent (control), gemcitabine (50 mg/kg) and tolfenamic acid (25 and 50 mg/kg) were immunostained with VEGF and CD31 antibodies.
Male athymic nude mice (NCI-nu) are purchased from the Animal Production Area of the National Cancer Institute Frederick Cancer Research and Development Center, housed and maintained under specific pathogen-free conditions in accordance with current regulations and standards of the United States Department of Agriculture. Injection of L3.6pl cells (with greater than 90% viability is performed as previously described (Bruns et al, 1999). Seven days after implantation of tumor cells into the pancreas of each mouse, five mice are killed to confirm the presence of tumor lesions.
Mice (10 animals per treatment group) are randomized to receive one of the following treatments: (1) thrice weekly oral administrations of vehicle solution which will serve as a control group; (2) thrice weekly oral administrations of at least three non-steroidal anti-inflammatory drugs at doses of 10, 25, and 50 mg/kg/day; (3) twice weekly intraperitoneal injections of 50, 75, and 100 mg/kg/day gemcitabine alone; and (4) combinations of gemcitabine and non-steroidal anti-inflammatory drugs. Mice are sacrificed on day 35 and body weights measured. Primary tumors in the pancreas are excised, measured, weighed. For immunohistochemistry (IHC) and hematoxylin and eosin (H&E) staining procedures, one part of the tumor tissue is fixed in formalin and embedded in paraffin, and another part is embedded in TISSUE-TEK® O.C.T. compound, rapidly frozen in liquid nitrogen, and stored at −70° C. Visible liver metastases are counted with the aid of a dissecting microscope, and the tissues processed for hematoxylin and eosin staining.
Paraffin-embedded tissues are used for identification of Sp proteins, VEGFR2p27 and vascular endothelial growth factor. Tissue sections ([…] thick) are mounted on positively charged SUPERFROST slides (Fischer Scientific, Co, Houston, Tex.) and dried overnight. Sections are deparaffinized in xylene and treated with a graded series of alcohol [100, 95, and 80% ethanol (v/v) in double distilled H2O] and rehydrated in phosphate buffered saline (pH 7.5). Tissues are treated with pepsin (Biomeda) for 15 min at 37° C. and washed with phosphate buffered saline. A positive reaction is visualized by incubating the slides with stable 3,3′-diaminobenzidine for 10-20 min. Sections are rinsed with distilled water, counterstained with Gill's hematoxylin for 1 min, and mounted with UNIVERSAL MOUNT (Research Genetics). […] Tumor sample lysates are also examined by western blot analysis for the same proteins.
The potential anti-tumorigenic and anti-angiogenic activity of tolfenamic acid against pancreatic tumors was investigated in an orthotopic athymic nude mouse model. L3.6pl cells were used for this study based on their aggressive growth and production of liver metastases (Bruns et al, 1999; Dubois et al, 1998).

[5] = system: cleaved poly (ADP-ribose) polymerase (PARP) protein; assay: Apoptosis: cleaved PARP in Panc-1 cells, Western blot; format: cell-based; conditions: 150 μM, 48 hr
Experimental: Cells are washed once with phosphate buffered saline PBS and collected by scraping in 200 μL of lysis buffer [50 mM HEPES, 0.5M sodium chloride, 1.5 mM magnesium chloride, 1 mM EGTA, 10% (v/v) glycerol, 1% Triton X-100, 5 μL/ml of Protease Inhibitor Cocktail (Sigma)]. The lysates from the cells are incubated on ice for 1 hr with intermittent vortexing followed by centrifugation at 40,000 g for 10 min at 4° C. Equal amounts of protein (60 μg) from each treatment group are diluted with loading buffer, boiled and loaded onto 10 and 12.5% SDS-polyacrylamide gel. […] Samples are electrophoresed, transferred to membranes, and proteins detected by incubation with polyclonal primary antibodies Sp1, Sp3, Sp4, HDAC, VEGF (a-20), c-Met, surviving, VEGF, cleaved PARP, and β-tubulin (H-235) followed by blotting with appropriate horseradish peroxidase-conjugated secondary antibody as previously described (Abdelrahim et al, 2004). After autoradiography, band intensities are determined by a scanning laser densitometer (Sharp Electronics Corporation, Mahwah, N.J.) using ZERO-D SCANALYTICS software (Scanalytics Corporation, Billerica, Mass.).

[6] = bi-weekly intraperitoneal from day 7, sacrificed day 35

## CC(C)Cc1ccc(C(C)C(=O)O)cc1 (centres unmarked) [ibuprofen]
[1]; 48 hr
  Sp1, Sp3, and Sp4 protein expression: had no effect

## O=C(O)Cc1ccccc1Nc1c(Cl)cccc1Cl [diclofenac sodium]
[1]; 48 hr
  order of potency for decreased expression of Sp1, Sp3, and Sp4 proteins: tolfenamic acid>diclofenac˜diflunisal
  Sp1, Sp3, and Sp4 protein expression: decreased expression of Sp1, Sp3, and Sp4 proteins
[2]; Panc-1 cells, 50 μM
  luciferase activity, pVEGF1 and pVEGF2 constructs: decreased transactivation
Panc-1 cells; compared with ampiroxicam and naproxen
  relative potency in Panc-1 growth inhibition: exhibited higher potencies
Panc-1 cells
  growth of Panc-1 pancreatic cancer cells: decreased growth of Panc-1 pancreatic cancer cells

## CS(=O)(=O)Nc1ccc([N+](=O)[O-])cc1Oc1ccccc1 [nimesulide]
[3]
  levels of Sp1, Sp4 and Sp3: decreased levels of Sp1 and Sp4 (but not Sp3)

## COc1ccc2c(c1)c(CC(=O)OCC(=O)O)c(C)n2C(=O)c1ccc(Cl)cc1 [acemetacin]
[1]; 48 hr
  Sp1, Sp3, and Sp4 protein expression: had no effect

## CC(=O)N[C@@H](CSC(=O)[C@]1([C@@H](O)C(C)C)NC(=O)[C@H](C)[C@@H]1O)C(=O)O [lactacystin]
[1]; 2 μM lactacystin plus 50 μM tolfenamic acid, 48 hr
  effect on tolfenamic acid-induced Sp1, Sp3, and Sp4 protein degradation: significant inhibition of Sp1, Sp3, and Sp4 protein degradation
[2]; Panc-1 cells co-treated with tolfenamic acid and proteasome inhibitor
  effect on tolfenamic acid-decreased transactivation of pVEGF2: blocked in cells co-treated with lactacystin

## Nc1ccn([C@@H]2O[C@H](CO)[C@@H](O)C2(F)F)c(=O)n1 [gemcitabine, 2′, 2′-difluorodeoxycitidine]
[4]
  immunostaining for vascular endothelial growth factor in tumor sections: relatively greater staining
[4]; [6]
  Body Weight Median: 24 g
  Incidence Liver metastasis: did not affect the incidence of liver metastasis
  Pancreatic Tumor Incidence (positive mice/mice injected): 10/10
  Tumor Volume Median: 1186.8 mm^3
  Tumor Weight Median: 0.8 g
[4]; bi-weekly intraperitoneal from day 7, sacrificed day 35, listed as Gemcitabine
  Incidence Liver metastasis: 5/10

## O=C(O)c1cc(-c2ccc(F)cc2F)ccc1O [diflunisal]
[1]; 48 hr
  order of potency for decreased expression of Sp1, Sp3, and Sp4 proteins: tolfenamic acid>diclofenac˜diflunisal
  Sp1, Sp3, and Sp4 protein expression: decreased expression of Sp1, Sp3, and Sp4 proteins

## O=C(O)CCC(=O)c1ccc(-c2ccccc2)cc1 [fenbuten]
[1]; 48 hr
  Sp1, Sp3, and Sp4 protein expression: had no effect

## Cc1ccc(C(=O)c2ccc(CC(=O)O)n2C)cc1 [tolmetin]
[1]; 48 hr
  Sp1, Sp3, and Sp4 protein expression: had no effect

## COc1ccc2cc([C@H](C)C(=O)O)ccc2c1 [naproxen]
[1]; 48 hr
  Sp1, Sp3, and Sp4 protein expression: had no effect
[1]; 150 μM, 48 hr (concentration of comparable growth inhibition)
  Sp protein degradation: only tolfenamic acid induced protein degradation
Panc-1 cells
  growth of Panc-1 pancreatic cancer cells: decreased growth of Panc-1 pancreatic cancer cells
[5]
  poly (ADP-ribose) polymerase cleavage: only tolfenamic acid induced protein degradation and poly (ADP-ribose) polymerase cleavage

## N#Cc1ccc(C(c2ccc(C#N)cc2)n2cncn2)cc1 [letrozole]
[1]; 48 hr
  Sp1, Sp3, and Sp4 protein expression: had no effect
